# Data taken from patent US7846434B2, “Materials and methods for improved immunoglycoproteins” (Trubion Pharmaceuticals, Inc., priority 2006, dated 2010).
# Assays:
# [1] = molecular target: T1, CD37 cell surface receptor (Homo sapiens, UniProt P11049); test: TRU-016 binding to human PBMC B lymphocytes by two-color flow cytometry
# T1 construct: Human PBMCs are isolated over LSM density gradients and incubated with unconjugated TRU-016; endogenous in cells; host or cells: human PBMCs, gated for CD19+ B lymphocytes
# T1 sequence (P11049 1-281): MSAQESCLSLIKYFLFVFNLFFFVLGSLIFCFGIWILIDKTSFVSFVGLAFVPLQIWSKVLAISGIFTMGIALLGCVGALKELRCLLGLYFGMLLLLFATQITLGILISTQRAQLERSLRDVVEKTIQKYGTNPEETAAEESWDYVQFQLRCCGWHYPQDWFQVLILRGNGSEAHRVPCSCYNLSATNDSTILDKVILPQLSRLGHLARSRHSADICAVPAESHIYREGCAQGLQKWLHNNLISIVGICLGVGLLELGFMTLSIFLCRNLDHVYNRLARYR
# Experimental: Experiments may be performed to confirm that the binding specificity of the parent antibody to the CD37 cell surface receptor is preserved in TRU-016. Human PBMCs are isolated over LSM density gradients and incubated with unconjugated TRU-016 and PE-conjugated anti-human CD19. Cells are washed and incubated with 1:100 FITC GAH IgG (Fc specific) for 45 minutes on ice. Cells are washed and analyzed by two-color flow cytometry on a FACsCalibur instrument using Cell Quest software. Cells are gated for B lymphocytes or non-B lymphocytes by CD19 staining.
# [2] = test system: Ramos B cells; test: CDC, Ramos B cells with human serum, propidium iodide; assay type: cell-based; conditions: TRU-016 from CHO cells cultured with 200 μM DMJ, 10 μM kifenunsine or 200 μM castanospermine
# Experimental: To determine the CDC activity of TRU-016 purified protein produced according to Example 2, Ramos B cells were suspended in Iscoves (Gibco/Invitrogen, Grand Island, N.Y.) at 5×10^5 cells/well in 75 μl. TRU-016 (75 μl) were added to the cells at twice the concentrations indicated. Binding reactions were allowed to proceed for 45 minutes prior to centrifugation and washing in serum-free Iscoves. Cells were resuspended in Iscoves with human serum (containing complement) at various concentrations. The cells were incubated 60 minutes at 37° C. Cells were washed by centrifugation and resuspended in staining media with 0.5 μg/ml propidium iodide. Samples were incubated 15 minutes at room temperature in the dark prior to analysis by flow cytometry using a FACsCalibur and CellQuest software (Becton Dickinson).
# [3] = test system: CD16; test: CD16 assays on sera of mice administered TRU-016; assay type: binding; conditions: sera at 48, 72, 96 and 192 hours after administration of carbohydrate-modified TRU-016
# [4] = test system: Ramos cells; test: Ramos tumor model in nude mice; assay type: in vivo; conditions: for Median Survival Time: 200 μg i.v. on days 0, 2, 4, 6 and 8
# Experimental: Nude mice are administered 5×10^6 Ramos cells subcutaneously on day 0 and injected intravenously with 200 μg control human IgG or TRU-016 test protein produced by CHO cells treated with 200 μM DMJ, 10 μM kifenunsine or 200 μM castanospermine on days 0, 2, 4, 6, and 8. Mice typically develop tumors within 6 days and die shortly thereafter. Tumors are measured three times weekly with digital calipers and LabCat software, and tumor volume is calculated as […]. Body weight is also determined once a week.
# Mice are sacrificed when the tumor reaches 1500 mm^3 in size (1200 mm^3 on Fridays). Mice are also sacrificed if ulceration of a tumor occurs, the tumor inhibits the mobility of animal, or if weight loss equals or exceeds 20%.
# [5] = test system: CD37-expressing Daudi cancer B-cell line; test: ADCC, 51Cr-labeled Daudi target cells with human PBL effector cells; assay type: cell-based; conditions: treated with CS over a range of 100 μM-800 μM final concentration
# Experimental: TRU-016 produced as described in Example 8 is incubated with the CD37-expressing Daudi cancer B-cell line in conjunction with primary human peripheral blood lymphocytes (PBL's) effector cells to assess ADCC activity.
# Daudi target cells (5×10^6) are added to a 15 ml conical tube and then centrifuged at 250×g for 5 minutes at 20° C. and the supernatant removed. The cell pellet is resuspended by the addition of 0.3 mCi Chromium-51 (^51Cr, GE Healthcare, CJ51). The cells are incubated for 75 minutes at 37° C. with 5% CO2, allowing the cells to incorporate the radioactive isotope. The cells are then washed three times to remove any unincorporated ^51 Cr. This is done by adding 10 mL of complete media—IMDM (Gibco) with 10% FBS (Gibco)—to the tube, centrifuging at 250×g for 5 minutes at 20° C. followed by removal of supernatant. The final resuspension is in 11.5 mL of complete media. TRU-016 is diluted in complete media, at concentrations that are able to generate maximal to background levels of cell lysis (500 ng/mL-0.005 ng/mL). These titrations are plated out, 50 μL/well, in a round bottom 96 well plate. The ^51Cr labeled target cells are added to the dose titrations of TRU-016 at 50 μL/well and the control wells (control media without TRU-016). PBL's are isolated from fresh heparinized whole blood by density gradient centrifugation using Lymphocyte Separation Media as per protocol (LSM, MP Biomedical, 50494/36427). […] The assay is incubated for 4.5-5 hours at 37° C., 5% CO2. The effector cells lyse the target cells relative to the TRU-016 concentration, releasing a proportional amount of ^51Cr into the assay supernatant. Following the incubation the plate is centrifuged at 250×g for 3 minutes at 20° C. A 25 μL volume of cell-free supernatant is removed from all wells to a scintillation plate (Perkin Elmer 6005185) and dried overnight. The amount of ^51Cr isotope in each well of the scintillation plate is measured using a Topcount plate reader (Perkin Elmer, C9904VO). The data are expressed as percent of specific release. Specific release is calculated as: (Sample value−Spontaneous value)/(Maximum value−Spontaneous value)*100% Spontaneous=amount of ^51Cr released from target cell only Maximum release=amount of ^51Cr released from targets treated with detergent lysing agent Background Control=amount of ^51Cr released from target cells+effector cells(No TRU-016)
# A dose response is generated and fit to a 4-parameter logistic curve using SoftMax Pro software (Molecular Devices, ver 5.0.1). Titrations of TRU-016 are utilized to create dose response curves of test and reference material for comparison. The EC50 values for the treated articles are compared to the untreated control (no CS) to determine the percent increase in ADCC activity.
# [6] = test system: CD16 (Fcγ RIII); test: Binding of SMIP bound on WIL2-S cells to soluble FcγR-MIg fusion (CD16), flow cytometry
# [7] = test system: BJAB B cells; test: ADCC, 51Cr-labeled BJAB B cells with human PBMC effectors; assay type: cell-based; conditions: culture media containing 200 μM DMJ, 10 μM kifenunsine or 200 μM castanospermine
# Experimental: To determine the ADCC activity of purified TRU-016, labeled BJAB B cells were used as targets and human peripheral blood mononuclear cells (PBMC) as effector cells. BJAB B cells (10^7 cells) were labeled with 500 μCi/mL ^51Cr sodium chromate for 2 hours at 37° C. in IMDM/10% FBS. PBMCs were isolated from heparinized, human whole blood by fractionation over Lymphocyte Separation Media (LSM, ICN Biomedical) gradients. Reagent samples were added to RPMI media with 10% FBS and serial dilutions of each reagent were prepared. The ^51Cr labeled BJAB were added at 2×10^4 cells/well. The PBMCs were then added at 5×10^5 cells/well for a final ratio of 25:1 effectors (PBMC):targets (BJAB). Reactions were set up in quadruplicate wells of a 96 well plate. Reactions were allowed to proceed for 6 hours at 37° C. in 5% CO2 prior to harvesting and counting. CPM released was measured on a Packard TopCounNXT from 50 μl dried culture supernatant. Percent specific killing was calculated by subtracting (cpm [mean of quadruplicate samples] of sample−cpm spontaneous release)/(cpm maximal release−cpm spontaneous release)×100, and data were plotted as % specific killing versus TRU-016 concentration.
# [8] = TRU-016 from CHO cells treated with 200 μM DMJ, 10 μM kifenunsine or 200 μM castanospermine
molecule,measurement,setting,value
TRU-016: [G28-1 scFv VH11S (SSC-P)H WCH2 WCH3] recombinant single chain protein (SMIP) that binds to the CD37 antigen; SEQ ID NO: 2,TRU-016 concentration at saturation of FITC signal on B lymphocytes,[1]; CD19 positive gate,approximately 1 μg/mL
same,mean fluorescence intensity (MFI) at saturation,[1]; CD19 positive gate,~1000
same,staining of the non-B lymphocyte population,[1]; non-B lymphocyte gate,"detectable, but very low"
same,CDC versus protein produced by untreated CHO cells,[2],similar
same,CD16 binding activity of sera containing TRU-016,[3],retained its increased CD16 binding activity
same,mean survival time,[4]; [8],increase mean survival time
same,tumor volume,[4]; [8],reduce tumor volume
same,ADCC activity relative to untreated TRU-016,[5],significantly increased
"O=C1N[C@@H]2[C@@H](O)[C@@H](O)[C@H](O)[C@@H](CO)N2C1=O [kifunensine, Kifunensine]",CD16 binding of TRU-016 supernatant (mean fluorescence intensity),"[6]; CHO cells cultured with kifunensine 0, 0.5, 1, 3, 5 or 10 μM",greatly increased
same,ADCC of TRU-016 purified protein (% specific killing),[7],improved
CS TRU-016: TRU-016 produced by CHO cells treated with 200 μM castanospermine,Median Survival Time,[4],13 days
"OC[C@H]1NC[C@@H](O)[C@@H](O)[C@@H]1O [DMJ, Deoxymannojirimycin]",CD16 binding of TRU-016 supernatant (mean fluorescence intensity),[6]; CHO cells cultured with modifier at 50 or 250 μM,increased
same,ADCC of TRU-016 purified protein (% specific killing),[7],improved
"Kifu TRU-016: TRU-016 produced by CHO cells treated with 10 μM kifenunsine (antibody, chains of the INN, looked up, V domains shown, altered glycosylation (kifunensine-treated CHO), TRU-016 produced by CHO cells treated with 10 μM kifenunsine) VH: EVQLVQSGAEVKKPGESLKISCKGSGYSFTGYNMNWVRQMPGKGLEWMGNIDPYYGGTTYNRKFKGQVTISADKSISTAYLQWSSLKASDTAMYYCARSVGPFDSWGQGTLVTVSS VL: EIVLTQSPATLSLSPGERATLSCRASENVYSYLAWYQQKPGQAPRLLIYFAKTLAEGIPARFSGSGSGTDFTLTISSLEPEDFAVYYCQHHSDNPWTFGQGTKVEIK",Median Survival Time,[4],10 days
